pEC50: −log10 of the molar value.
Key:
[1] = test system: human donor T cells; test: Shield-1 concentration and time dependent IL12 p40 in human T cells (Tables 94-96); type: cell-based; settings: 24 h
[2] = test system: HCT-116; test: DD regulated IL2, IL2 ELISA with Shield-1 dose; type: cell-based, human; settings: read-out: EC50 of Shield-1, IL2 ELISA (FIG. 58); HCT-116 transduced with OT-IL2-001
Source text: OT-IL2-001 (FKBP) was transduced into human colorectal carcinoma line, HCT-116.

[3] = test system: human donor T cells; test: Shield-1 concentration and time dependent IL12 p40 in human T cells (Tables 94-96); type: cell-based; parameters: IL12 levels in T cells (IL12 p40, MSD): unit not given beside the values; settings: for pEC50: IL12 p40 from OT-IL12-026 T cells; for IL12 levels in T cells (IL12 p40, MSD): OT-IL12-026 T cells, 24 hours
Method: On day 1, cells were transduced with lentivirus for construct OT-IL12-026 at MOIs of 40, 13.3 or 4.4. […] Cells were then plated at 100,000 per well on U-bottom 96-well plate. On day 14, cells were treated for 24 hours with varying concentrations of Shield-1 or vehicle control. On day 15, the supernatant was harvested and IL12 p40 levels were measured by MSD assay. In the Table 94, MOI stands for multiplicity of infection.
A time course experiment was also performed using Shield-1 at a dose of 1 μM. T cells transduced with OT-IL12-020, OT-IL12-026 or empty vector were treated with Shield-1 or vehicle control for 4, 8, 16 and 24 hours. IL12 p40 levels were measured using MSD assay. The stabilization ratio was measured as the ratio of expression of IL12 in the presence of the stimulus to the expression in the absence of the stimulus.

- pEC50 [2]: 7.30
- pEC50 ([3]; MOI 4.4): 7.08
- pEC50 ([3]; MOI 13.3): 7.03
- pEC50 ([3]; MOI 40): 6.89
Structure (SMILES): CC[C@H](C(=O)N1CCCC[C@H]1C(=O)O[C@H](CCc1ccc(OC)c(OC)c1)c1cccc(OCCN2CCOCC2)c1)c1cc(OC)c(OC)c(OC)c1 [Shield-1]
- Shield-1 concentration at which viability was reduced [1]: greater than 5 μM
- IL12 levels in T cells (IL12 p40, MSD) ([3]; MOI = 4.4, Shield-1 0.1 nM): 49.44
- IL12 levels in T cells (IL12 p40, MSD) ([3]; MOI = 4.4, Shield-1 1 nM): 50.44
- IL12 levels in T cells (IL12 p40, MSD) ([3]; MOI = 4.4, Shield-1 5 nM): 50.44
- IL12 levels in T cells (IL12 p40, MSD) ([3]; MOI = 4.4, Shield-1 10 nM): 178.18
- IL12 levels in T cells (IL12 p40, MSD) ([3]; MOI = 4.4, Shield-1 50 nM): 357.11
- IL12 levels in T cells (IL12 p40, MSD) ([3]; MOI = 4.4, Shield-1 100 nM): 710.56
- IL12 levels in T cells (IL12 p40, MSD) ([3]; MOI = 4.4, Shield-1 500 nM): 1284.95
- IL12 levels in T cells (IL12 p40, MSD) ([3]; MOI = 4.4, Shield-1 1000 nM): 1152.28
- IL12 levels in T cells (IL12 p40, MSD) ([3]; MOI = 4.4, Shield-1 2000 nM): 1071.54
- IL12 levels in T cells (IL12 p40, MSD) ([3]; MOI = 13.3, Shield-1 0.1 nM): 48.10
- IL12 levels in T cells (IL12 p40, MSD) ([3]; MOI = 13.3, Shield-1 1 nM): 48.61
- IL12 levels in T cells (IL12 p40, MSD) ([3]; MOI = 13.3, Shield-1 5 nM): 49.54
- IL12 levels in T cells (IL12 p40, MSD) ([3]; MOI = 13.3, Shield-1 10 nM): 220.08
- IL12 levels in T cells (IL12 p40, MSD) ([3]; MOI = 13.3, Shield-1 50 nM): 420.72
- IL12 levels in T cells (IL12 p40, MSD) ([3]; MOI = 13.3, Shield-1 100 nM): 972.56
- IL12 levels in T cells (IL12 p40, MSD) ([3]; MOI = 13.3, Shield-1 500 nM): 1307.70
- IL12 levels in T cells (IL12 p40, MSD) ([3]; MOI = 13.3, Shield-1 1000 nM): 1559.43
- IL12 levels in T cells (IL12 p40, MSD) ([3]; MOI = 13.3, Shield-1 2000 nM): 1577.99
- IL12 levels in T cells (IL12 p40, MSD) ([3]; MOI = 40, Shield-1 0.1 nM): 88.30
- IL12 levels in T cells (IL12 p40, MSD) ([3]; MOI = 40, Shield-1 1 nM): 80.07
- IL12 levels in T cells (IL12 p40, MSD) ([3]; MOI = 40, Shield-1 5 nM): 88.83
- IL12 levels in T cells (IL12 p40, MSD) ([3]; MOI = 40, Shield-1 10 nM): 374.90
- IL12 levels in T cells (IL12 p40, MSD) ([3]; MOI = 40, Shield-1 50 nM): 608.85
- IL12 levels in T cells (IL12 p40, MSD) ([3]; MOI = 40, Shield-1 100 nM): 1293.01
- IL12 levels in T cells (IL12 p40, MSD) ([3]; MOI = 40, Shield-1 500 nM): 1861.36
- IL12 levels in T cells (IL12 p40, MSD) ([3]; MOI = 40, Shield-1 1000 nM): 2346.15
- IL12 levels in T cells (IL12 p40, MSD) ([3]; MOI = 40, Shield-1 2000 nM): 2330.88

Reference: patent US12104178B2, “DHFR tunable protein regulation” (Obsidian Therapeutics, Inc., priority 2017, dated 2024)
